How the values were obtained:
[1] = Solubility of AMG 706 anhydrous diphosphate salt in water over time; assay type: physicochemical; conditions: thermodynamic from solid
Method: AMG 706 anhydrous diphosphate (˜100 mg) salt was added to 2 mL of water and placed on a rotator stirrer. Multiple runs were performed each at different temperatures between about room temperature to about 40° C. Solid was isolated at various time points by vacuum filtering the supernatant and the material was air-dried overnight.

[2] = Conversion of anhydrous diphosphate salt to monophosphate hydrate salt in water; assay type: physicochemical; conditions: in the presence of water or aqueous co-solvent mixtures
Description: The anhydrous diphosphate sale of AMG 706 is currently manufactured as a crystalline form. This crystalline form is used in the table formulations for clinical trials.
The monophosphate dihydrate salt was isolated and characterized by various analytical tools for its physico-chemical properties. Interconversion kinetics of anhydrous diphosphate to monophosphate dihydrate was studied under various conditions.

solubility at 0.5 hr ([1]; time 0.5 hr, RT, pH 2.6): 22 mg/mL
solubility at 1 hr ([1]; time 1.0 hr, RT, pH 2.7): 21 mg/mL
solubility at 3 hr ([1]; time 3.0 hr, RT, pH 2.7): 21 mg/mL
solubility at 6 hr ([1]; 40 C, pH 2.6): 20 mg/mL
solubility at 6 hr ([1]; RT, pH 2.6): 21 mg/mL
solubility at 24 hr ([1]; 40 C, pH 3.0): 26 mg/mL
solubility at 24 hr ([1]; RT, pH 2.9): 21 mg/mL
Compound: CC1(C)CNc2cc(NC(=O)c3cccnc3NCc3ccncc3)ccc21 [AMG 706 anhydrous diphosphate, N-(2,3-dihydro-3,3-dimethyl-1H-indol-6-yl)-2-[(4-pyridinylmethyl)amino]-3-pyridinecarboxamide]
Solid-form stability (disproportionation/conversion) [2]: can disproportionate and convert to a more stable monophosphate hydrate salt

— US7989631B2, “Hydrate forms of AMG706” (Amgen Inc., priority 2006, dated 2011)
